In patent US10213476B2, “Compstatin analogs with improved potency and pharmacokinetic properties” (The Trustees of the University of Pennsylvania, priority 2014, dated 2019):
Read-outs that look alike come from different tables or passages of the source.

Columns and labels:
C3b = target: T1, C3b (Homo sapiens, UniProt P01024); assay: SPR single-cycle kinetic analysis of compstatin analogs on immobilized C3b; settings: C3b surface 3000-5000 RU, 25° C., PBS-T, 1:1 binding model
T1 construct: a two-chain molecule consisting of a β chain (residues 1 to about 645) and an α-chain (residues 650-1,641)
T1 sequence (P01024 23-667 limits assumed): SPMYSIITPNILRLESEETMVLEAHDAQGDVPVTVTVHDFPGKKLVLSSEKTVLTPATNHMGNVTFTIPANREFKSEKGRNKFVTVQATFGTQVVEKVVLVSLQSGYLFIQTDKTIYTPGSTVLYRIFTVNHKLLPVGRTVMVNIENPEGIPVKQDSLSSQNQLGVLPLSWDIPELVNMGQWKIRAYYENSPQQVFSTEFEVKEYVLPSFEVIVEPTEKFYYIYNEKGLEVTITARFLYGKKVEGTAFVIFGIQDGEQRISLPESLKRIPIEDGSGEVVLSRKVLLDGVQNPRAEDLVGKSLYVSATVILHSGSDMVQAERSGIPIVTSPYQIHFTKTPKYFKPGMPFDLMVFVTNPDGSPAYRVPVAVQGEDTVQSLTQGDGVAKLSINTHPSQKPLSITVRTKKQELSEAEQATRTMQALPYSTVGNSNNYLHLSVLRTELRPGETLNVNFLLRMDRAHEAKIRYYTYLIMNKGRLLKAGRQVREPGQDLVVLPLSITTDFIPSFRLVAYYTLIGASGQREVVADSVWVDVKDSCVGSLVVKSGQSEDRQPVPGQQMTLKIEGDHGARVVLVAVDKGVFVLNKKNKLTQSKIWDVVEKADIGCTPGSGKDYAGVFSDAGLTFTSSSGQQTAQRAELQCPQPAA
T1 sequence (P01024 749-1663 partner limits assumed): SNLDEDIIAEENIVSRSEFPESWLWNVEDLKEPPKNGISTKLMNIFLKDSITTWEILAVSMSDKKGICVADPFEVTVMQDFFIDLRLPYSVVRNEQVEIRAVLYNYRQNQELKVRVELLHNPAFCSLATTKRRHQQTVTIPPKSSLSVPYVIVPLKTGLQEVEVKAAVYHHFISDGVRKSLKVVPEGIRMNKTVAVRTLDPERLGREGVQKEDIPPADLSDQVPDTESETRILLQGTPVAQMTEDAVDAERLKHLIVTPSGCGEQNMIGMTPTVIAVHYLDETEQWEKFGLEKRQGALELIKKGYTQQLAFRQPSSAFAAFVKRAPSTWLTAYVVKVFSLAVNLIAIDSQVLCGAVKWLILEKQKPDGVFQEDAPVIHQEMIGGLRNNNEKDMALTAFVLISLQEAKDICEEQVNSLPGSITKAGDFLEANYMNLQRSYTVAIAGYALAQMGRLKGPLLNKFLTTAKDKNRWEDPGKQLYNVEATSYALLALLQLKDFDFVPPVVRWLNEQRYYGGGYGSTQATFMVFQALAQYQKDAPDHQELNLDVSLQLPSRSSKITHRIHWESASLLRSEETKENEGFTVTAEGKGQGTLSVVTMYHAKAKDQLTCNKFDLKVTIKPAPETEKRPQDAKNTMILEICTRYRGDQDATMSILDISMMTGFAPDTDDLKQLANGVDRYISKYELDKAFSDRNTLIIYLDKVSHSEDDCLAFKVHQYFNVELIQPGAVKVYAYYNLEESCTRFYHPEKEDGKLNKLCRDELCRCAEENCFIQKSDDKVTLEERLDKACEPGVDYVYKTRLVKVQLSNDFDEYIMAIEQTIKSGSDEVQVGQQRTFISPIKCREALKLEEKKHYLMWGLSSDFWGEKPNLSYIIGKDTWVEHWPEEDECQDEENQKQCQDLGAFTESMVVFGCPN
Description: Individual injections within a cycle were 2 min long with a 5-min dissociation between injections. After the end of the last injection, a 40-min dissociation time was allowed. […] Each assay was performed at least twice.

[1] = tested on: complement activation initiated via the classical pathway; assay: ELISA of immune complex-induced complement activation (classical pathway) in human plasma; format: biochemical
Description: Each peptide was dissolved in water, and its concentration was determined by Nanodrop using the absorbance at 280 nm. […] The percent inhibition was plotted against the peptide concentration, and the resulting data set was fitted to the logistic dose-response function to obtain IC50 values (FIG. 4).

baboon albumin = assay: SPR of albumin binding to immobilized ABM2-Cp20 (baboon albumin); settings: baboon albumin 6.3-100 μM over immobilized biotinylated ABM2-Cp20; read-out: Apparent binding affinity
Description: Streptavidin was immobilized on all flow cells of CM5 sensor chips (GE Healthcare) using standard amine coupling under 30° C. […] Sets of five increasing concentrations (6.3-100 μM) of albumin from different species (human, mouse, bovine, rabbit and baboon) were injected over the chip surface (FIG. 2). Data were recorded at 25° C. using PBS-T (10 mM sodium phosphate, 150 mM NaCl, 0.005% Tween-20, pH 7.4) as running buffer. Data were processed in Scrubber (v2.0c; Bio-Logic Software, Campbell, Australia); the signals from an untreated flow cell and buffer blank injections were subtracted. Apparent binding affinities (KD app) were calculated by fitting the steady state responses to a single-binding-site model.

[2] = target: human serum albumin (HSA) (Homo sapiens, UniProt P02768); assay: SPR competition between immobilized ABM2-Cp20 and soluble ibuprofen for HSA; format: binding; settings: concluded from ibuprofen (site II ligand) competition
Chain of human serum albumin (HSA) (P02768 25-609): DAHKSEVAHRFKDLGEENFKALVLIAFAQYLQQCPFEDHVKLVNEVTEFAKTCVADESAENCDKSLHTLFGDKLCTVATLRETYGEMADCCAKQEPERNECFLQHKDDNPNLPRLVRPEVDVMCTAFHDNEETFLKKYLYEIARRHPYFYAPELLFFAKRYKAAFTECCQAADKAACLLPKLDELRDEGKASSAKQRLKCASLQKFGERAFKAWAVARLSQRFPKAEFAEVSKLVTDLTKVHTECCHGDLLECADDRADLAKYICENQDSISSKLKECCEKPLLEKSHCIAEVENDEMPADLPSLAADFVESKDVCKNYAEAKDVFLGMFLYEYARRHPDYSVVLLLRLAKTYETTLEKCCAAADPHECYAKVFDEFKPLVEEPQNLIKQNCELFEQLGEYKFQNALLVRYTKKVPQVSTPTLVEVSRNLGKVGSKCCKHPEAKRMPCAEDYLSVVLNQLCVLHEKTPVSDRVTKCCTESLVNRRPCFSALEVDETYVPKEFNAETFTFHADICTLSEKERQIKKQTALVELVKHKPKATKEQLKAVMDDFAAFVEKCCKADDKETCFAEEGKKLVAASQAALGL
Description: Data were recorded at 25° C. using PBS-T (10 mM sodium phosphate, 150 mM NaCl, 0.005% Tween-20, pH 7.4) as running buffer, and untreated flow cells were used as a reference surface.

[3] = Plasma protein binding by rapid equilibrium dialysis (RED); format: in vitro ADME; settings: human, 37° C.; for fraction unbound at 24 h, 5 μM: peptide 5 μM; for fraction unbound at 24 h, 10 μM: peptide 10 μM
Description: A rapid equilibrium dialysis (RED) device with inserts (MWCO 8 K) was used (Thermo Scientific). C3-depleted serum (product no. A314) was purchased from Complement Technology, Tyler, Tex. Purified C3 (Complement Technology, A113c) was added to C3-depleted serum at a defined, physiologically relevant concentration (5 μM) to maintain the sample matrix and inhibitor-target ratio in comparative experiments (referred to as C3-positive serum).
Equilibrium dialysis using RED device was performed to determine the plasma protein binding. The inserts were soaked in water for 10 min before discarding the water (twice), and then used immediately (Waters et al., 2008, J. Pharm. Sci. 97, 4586). A mixture of 90 μL C3-depleted or C3-positive serum and 10 μL compstatin sample (5 or 10 μM) in PBS buffer (10% DMSO, 0.5% Tween 20, 0.2% sodium azide) was placed in the plasma chamber, and 300 μL PBS buffer (1% DMSO and 0.05% Tween 20) was placed in the buffer chamber. The final DMSO concentration of the dialysis system was 1%. The plate was covered with a sealing tape and incubated at 37° C. on an orbital shaker (200 rpm) for 24 h. Each sample was analyzed at least twice.
A 50-μL aliquot of each post-dialysis sample from both the plasma and buffer chambers was pipetted into separate LoBind tubes (Eppendorf). The samples from plasma chambers were diluted with 50 μL PBS, while samples from buffer chambers were diluted with C3-depleted, or C3 positive serum (matrix match). All samples were diluted to 100 μL using 4% H3PO4 to dissociate the peptides. […] The eluent was injected into the UPLC-HDMS system consisting of an online ACQUITY UPLC (Waters BEH C18 column, 130 Å, 1.7 μm, 2.1 mm×150 mm) coupled to a SYNAPT G2-S HDMS instrument equipped with an ESI source (capillary voltage was set to 3.2 kV, the cone voltage to 30 V and the source temperature to 120° C.). MS peak areas of the peptide were determined by integration for the quantification (Qu et al., 2013, supra). The unbound fraction of the peptide in plasma (% free) was calculated from the ratio of the buffer side response to the plasma side response. The bound fraction of the compound was calculated as follows: % bound=100−% free.

[4] = compared with parent peptide
[5] = in human; cited from earlier work
human serum albumin = human serum albumin (Homo sapiens, UniProt P02768); settings: cited from earlier work
Chain of human serum albumin (P02768 25-609): as above

C3 = C3 (Homo sapiens, UniProt P01024); settings: versus earlier compstatin analogs, backbone N-methylation; cited from earlier work
Chain of C3 (P01024 23-1663): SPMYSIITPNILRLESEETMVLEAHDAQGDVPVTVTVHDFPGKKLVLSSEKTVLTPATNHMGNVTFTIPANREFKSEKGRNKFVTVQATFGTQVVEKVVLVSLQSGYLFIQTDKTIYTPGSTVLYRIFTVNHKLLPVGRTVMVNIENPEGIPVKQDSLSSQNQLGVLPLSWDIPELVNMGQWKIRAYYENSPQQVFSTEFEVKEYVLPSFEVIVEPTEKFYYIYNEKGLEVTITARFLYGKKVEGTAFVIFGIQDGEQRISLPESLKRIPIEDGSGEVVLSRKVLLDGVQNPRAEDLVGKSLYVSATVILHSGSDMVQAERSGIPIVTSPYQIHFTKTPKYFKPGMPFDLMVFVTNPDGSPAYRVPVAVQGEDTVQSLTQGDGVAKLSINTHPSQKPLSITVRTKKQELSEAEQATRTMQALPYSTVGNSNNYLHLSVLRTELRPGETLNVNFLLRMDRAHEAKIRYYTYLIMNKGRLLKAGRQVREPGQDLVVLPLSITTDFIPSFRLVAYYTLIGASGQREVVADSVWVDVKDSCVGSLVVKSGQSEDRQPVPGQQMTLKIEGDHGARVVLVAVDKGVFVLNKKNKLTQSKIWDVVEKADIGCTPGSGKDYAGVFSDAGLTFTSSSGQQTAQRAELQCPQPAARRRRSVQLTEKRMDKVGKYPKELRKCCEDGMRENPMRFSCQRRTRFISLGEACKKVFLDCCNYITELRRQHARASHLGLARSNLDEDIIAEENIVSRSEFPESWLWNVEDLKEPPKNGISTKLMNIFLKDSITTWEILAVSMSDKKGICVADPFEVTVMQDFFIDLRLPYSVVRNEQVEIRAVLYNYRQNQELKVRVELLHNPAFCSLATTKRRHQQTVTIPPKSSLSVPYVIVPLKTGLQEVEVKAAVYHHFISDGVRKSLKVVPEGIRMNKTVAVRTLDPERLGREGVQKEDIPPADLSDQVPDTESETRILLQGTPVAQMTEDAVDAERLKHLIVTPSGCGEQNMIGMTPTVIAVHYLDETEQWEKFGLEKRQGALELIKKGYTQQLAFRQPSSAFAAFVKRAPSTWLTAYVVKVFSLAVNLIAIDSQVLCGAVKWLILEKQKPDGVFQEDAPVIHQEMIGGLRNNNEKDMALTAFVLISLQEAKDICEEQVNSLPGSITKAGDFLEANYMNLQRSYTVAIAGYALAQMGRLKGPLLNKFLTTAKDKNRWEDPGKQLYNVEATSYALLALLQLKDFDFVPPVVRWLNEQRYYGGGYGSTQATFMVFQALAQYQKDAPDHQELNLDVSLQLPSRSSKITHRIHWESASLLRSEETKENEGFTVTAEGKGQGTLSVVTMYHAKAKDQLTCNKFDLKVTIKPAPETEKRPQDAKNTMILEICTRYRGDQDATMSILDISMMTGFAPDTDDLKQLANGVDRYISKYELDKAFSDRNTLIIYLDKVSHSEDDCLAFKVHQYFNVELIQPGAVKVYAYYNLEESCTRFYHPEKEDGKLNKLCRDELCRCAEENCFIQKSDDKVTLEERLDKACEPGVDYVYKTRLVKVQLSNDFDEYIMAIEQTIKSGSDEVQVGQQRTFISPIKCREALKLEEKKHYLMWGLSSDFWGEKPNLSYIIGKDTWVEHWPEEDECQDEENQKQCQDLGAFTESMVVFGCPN

[6] = NHP; cited from earlier work
[7] = C3-depleted serum with 5 μM purified C3, 24 h, read-out: C3-positive serum % bound
[8] = C3-depleted serum, 24 h, read-out: C3-depleted serum % bound (converted)
[9] = C3-depleted serum with 5 μM purified C3, 24 h, read-out: C3-positive serum % bound (converted)

kd (C3b)	SMILES	IC50 [1] [nM]	fraction unbound at 24 h, 5 μM [3, 7]	fraction unbound at 24 h, 5 μM [3, 8]	fraction unbound at 24 h, 10 μM [3, 9]	fraction unbound at 24 h, 10 μM [3, 8]	half-life [6] [h]	further results
0.5 ± 0.2 10^−3 s^−1	CC[C@H](C)[C@H](NC(=O)[C@@H](Cc1ccc(O)cc1)NC(=O)CCCCCOP(=O)(O)OC1CCC(c2ccccc2)(c2ccccc2)CC1)C(=O)N[C@H]1CSSC[C@@H](C(=O)N(C)[C@H](C(N)=O)[C@@H](C)CC)NC(=O)[C@H](CCCNC(=N)N)NC(=O)[C@H](Cc2c[nH]cn2)NC(=O)[C@H](C)NC(=O)CN(C)C(=O)[C@H](Cc2c[nH]c3ccccc23)NC(=O)[C@H](CC(=O)O)NC(=O)[C@H](CCC(N)=O)NC(=O)[C@H](Cc2cn(C)c3ccccc23)NC(=O)[C@H](C(C)C)NC1=O [ABM2-Cp40]	80 ± 30						
	CC[C@H](C)[C@H](NC(=O)CCCCCOP(=O)(O)OC1CCC(c2ccccc2)(c2ccccc2)CC1)C(=O)N[C@H]1CSSC[C@@H](C(=O)N(C)[C@H](C(N)=O)[C@@H](C)CC)NC(=O)[C@H](CCCNC(=N)N)NC(=O)[C@H](Cc2c[nH]cn2)NC(=O)[C@H](C)NC(=O)CN(C)C(=O)[C@H](Cc2c[nH]c3ccccc23)NC(=O)[C@H](CC(=O)O)NC(=O)[C@H](CCC(N)=O)NC(=O)[C@H](Cc2cn(C)c3ccccc23)NC(=O)[C@H](C(C)C)NC1=O [ABM2-Cp20, ABM2-Ile-[Cys-Val-Trp(Me)-Gln-Asp-Trp-Sar-Ala-His-Arg-Cys]-mIle-NH2]	170 ± 110	< 0.01	< 0.01	< 0.01	< 0.01		Kd (baboon albumin): 106000 ± 3000 nM; albumin binding site [2]: binds primarily to site II; solubility [4]: lower solubility
	O=C([O-])CN(CCN(CC(=O)[O-])CC(COP(=O)([O-])OC1CCC(c2ccccc2)(c2ccccc2)CC1)N(CC(=O)[O-])CC(=O)[O-])CC(=O)[O-].[Gd+3].[Na+].[Na+].[Na+] (centres unmarked) [MS-325, gadofosveset trisodium]							intravascular half-life [5]: 18.5 ± 3 h; Kd (human serum albumin): 164000 nM
1.3 ± 0.2 10^−3 s^−1	CC[C@H](C)[C@H](NC(=O)[C@H](N)Cc1ccc(O)cc1)C(=O)N[C@H]1CSSC[C@@H](C(=O)N(C)[C@H](C(N)=O)[C@@H](C)CC)NC(=O)[C@H](CCCNC(=N)N)NC(=O)[C@H](Cc2c[nH]cn2)NC(=O)[C@H](C)NC(=O)CN(C)C(=O)[C@H](Cc2c[nH]c3ccccc23)NC(=O)[C@H](CC(=O)O)NC(=O)[C@H](CCC(N)=O)NC(=O)[C@H](Cc2cn(C)c3ccccc23)NC(=O)[C@H](C(C)C)NC1=O [Cp40, (D)Tyr-Ile-[Cys-Val-Trp(Me)-Gln-Asp-Trp-Sar-Ala-His-Arg-Cys]-mIle-NH2, reference compound]						12	

SMILES	kd (C3b)	IC50 [1] [nM]	fraction unbound at 24 h, 5 μM [3, 7]	fraction unbound at 24 h, 5 μM [3, 8]	fraction unbound at 24 h, 10 μM [3, 9]	fraction unbound at 24 h, 10 μM [3, 8]	half-life [6] [h]	further results
CC[C@H](C)[C@H](NC(C)=O)C(=O)N[C@H]1CSSC[C@@H](C(=O)N(C)[C@H](C(N)=O)[C@@H](C)CC)NC(=O)[C@H](CCCNC(=N)N)NC(=O)[C@H](Cc2c[nH]cn2)NC(=O)[C@H](C)NC(=O)CN(C)C(=O)[C@H](Cc2c[nH]c3ccccc23)NC(=O)[C@H](CC(=O)O)NC(=O)[C@H](CCC(N)=O)NC(=O)[C@H](Cc2cn(C)c3ccccc23)NC(=O)[C@H](C(C)C)NC1=O [Cp20, Ac-Ile-[Cys-Val-Trp(Me)-Gln-Asp-Trp-Sar-Ala-His-Arg-Cys]-mIle-NH2, reference compound]	6.7 ± 2.9 10^−3 s^−1	260 ± 120	< 0.01	0.93	0.16	0.97	9	kon (C3b; read-out: ka): 2.3e+06 ± 700000 M⁻¹ s⁻¹; improved affinity (C3): 10 fold
